Results: patent US20160138077A1, “MONITORING AND ASSESSING DEACETYLASE ENZYME ACTIVITY” (THE GENERAL HOSPITAL CORPORATION, priority 2013, published 2016)

How the values were obtained:
Cathepsin B = molecular target: T1, Cathepsin B (Homo sapiens, UniProt P07858); test: LCMS assay of protease enzymatic action on HP-1; format: biochemical; details: −SAHA, 5 μM HP-1, 12 hours at 37° C.
T1 construct: purchased EMD Millipore
Experimental: (§1) The enzymatic cleavage of HP-1 was analyzed by performing LCMS assays with sirtuin 1 and 3 (Cayman Chemicals) and the proteases chymotrypsin (Sigma-Aldrich), cathepsin (EMD Millipore), and pepsin* (Sigma-Aldrich). Solutions containing (i) vehicle with DMSO in HDAC buffer, (ii) 5 μM HP-1 in HDAC buffer, and (iii) 5 μM HP-1 and the enzyme in HDAC buffer were incubated for 12 hours at 37° C. Following incubation, a 20 μL aliquot of supernatant from each sample was analyzed by LCMS. Deacetylation of HP-1 was investigated by screening for the DHP-1 (M+H)^+ ion following positive electrospray ionization. All assay samples were analyzed in triplicate. […]
(§2) HP-1 was not altered by sirtuins 1 and 3 or the proteases chymotrypsin, cathepsin and pepsin, as determined by LCMS. […] For Cathepsin B, the cleavage of the enzyme substrate, z-RR-pNA (Santa Cruz Biotechnology, Dallas, Tex.) was monitored using a Wallac EnVision 2103 Multilabel fluorescence plate reader (PerkinElmer, Waltham, Mass.) with a 405 nm excitation filter, a 406 nm emission filter, and a gain of 150. The cleavage of the pepsin substrate, Ac-Phe-Tyr-OH (Chem-Impex Inc.), was monitored by LCMS at pH 4. […]

Chymotrypsin = molecular target: T2, Chymotrypsin (Bos taurus, UniProt P00766); test: LCMS assay of protease enzymatic action on HP-1; format: biochemical; details: −SAHA, 5 μM HP-1, 12 hours at 37° C.
T2 construct: purchased Sigma-Aldrich
Experimental: as §1, §2

HeLa cells = test: Confocal fluorescence imaging of HDAC activity in HeLa cells; format: cell-based; details: 5 μM probe, 2 hours
Experimental: Imaging HDAC activity in HeLa cells with HP-1 and 2. An acid-washed, poly-lysine-treated sterile glass cover slip was added to each well of 6-well plate, and HeLa cells were plated at a seeding density of ˜2.5×10^5 cells/mL in 2 mL of growth medium. After 24 hours, the cells reached 80-85% confluence. For all experiments, solutions of HP-1 and HP-2 (200 mM each) were prepared in DMSO and diluted in HDAC buffer to a final concentration of 100 μM. SAHA solutions (100 mM) were prepared in DMSO and diluted in HDAC buffer to make a 100 μM solution. All solutions were prepared immediately prior to application to the cells. […]
Confocal fluorescence image acquisition and analysis. Confocal fluorescence imaging was performed with a Zeiss laser scanning microscope 710 with a 63× objective lens and Zen 2009 software (Carl Zeiss). […] The mean fluorescence intensity of 10 cells per coverslip was measured using ImageJ software. […] The mean background signal was also measured and subtracted from the mean fluorescence signal within the cells. Mean fluorescence intensities and standard deviations were plotted in Microsoft Excel.
Imaging HDAC activity in HeLa cells with HP-1 and 2. […] Cover slips were mounted on a drop of Gel Mount (anti-fade with DAPI nuclear stain) and analyzed by confocal imaging.
Confocal fluorescence imaging. […]

With `CC(=O)NC=CCCCCNC(=O)CCCCCNc1ccc([N+](=O)[O-])c2nonc12` [HP-1] the “% HP-1 to DHP-1” value (Cathepsin B) was 0%, the “% HP-1 to DHP-1” value (Chymotrypsin) was 0% and the “intracellular NBD fluorescence” value (HeLa cells; 10 μM SAHA added 15 min prior) was “reduces the level of fluorescence”. For the same compound, the “intracellular NBD fluorescence” value (HeLa cells; absence of SAHA) was “robust intracellular fluorescent signal”.
